Where a name gives a salt, the structure may show the parent alone.
How the values were obtained:
[1] = tested on: WT HBV; experiment: RNA launch method: inhibition of HBV replication from transfected pgRNA, read out as percent HBsAg (CLIA); format: cell-based; conditions: HBsAg with vs without inhibitor, FIG. 4
Method: The inhibitory effect of three reverse-transcriptase inhibitors, Entecavir (ETV), Tenofovir Disoproxil Fumarate (TDF), and Lamivudine (LAM) on WT HBV was compared. The inhibitory effect of LAM on the HBV viral variant M204V was also measured. The inhibition by the reverse-transcriptase inhibitors was determined as percent HBsAg by comparing the level of HBsAg in the presence and absence of the inhibitors.
HepG2-NTCP or Huh-7.5-NTCP cells were seeded at 2.5×10^5 cells per well in six-well plates two days before transfection. The media was changed to 2 ml DMEM containing 1.5% FBS and 0.1 mM NEAA just before transfection. […]
HBeAg and HBsAg were quantified using a chemiluminescence immunoassay (CLIA) kit (Autobio Diagnostics Co., Zhengzhou, China) according to the manufacturer's instructions. To quantify HBV DNA, total DNA was extracted from infected or RNA-transfected cells using QIAamp DNA Blood Mini Kit (Qiagen, cat. #51106) and HBV DNA was detected by qPCR as previously described (Michalidis et al., Sci Rep. 2017, November 30:7(1):16616). For each experiment, cells were transfected with T7-RFP as a negative control and DNA quantified from these cells was used to define the background. […]

[2] = tested on: chronic HBV; conditions: chronically infected patients, injectable; cited from earlier work

Molecule | inhibitory effect on WT HBV (HBV replication, percent HBsAg) [1] | success rate of curing chronic HBV [2] [%]
C=C1[C@H](CO)[C@@H](O)C[C@@H]1n1cnc2c(=O)[nH]c(N)nc21 [Entecavir] | inhibited HBV replication in a dose-dependent manner | –
interferon alpha [IFNα] | – | ~10
CC(C)OC(=O)OCOP(=O)(CO[C@H](C)Cn1cnc2c(N)ncnc21)OCOC(=O)OC(C)C [Tenofovir Disoproxil Fumarate] | inhibited HBV replication in a dose-dependent manner | –

— US20210380951A1, “RNA-BASED METHODS TO LAUNCH HEPATITIS B VIRUS INFECTION” (priority 2018, published 2021)
